Source: PMC4541410 (Scientific Reports, 2015)
Like-named read-outs stand apart in the source and are kept apart here. Where a SMILES comes first, the peptide text is derived from it.

Assays:
proteinase K = assay: in vitro; details: proteinase K in PBS, pH 7.2
Description: (§1) Chromatographic analyses were performed using an ODS-C8 column (5 μm, 100 mm × 2.0 mm ID) kept at ambient temperature. The mobile phase was composed of acetonitrile-water-formic acid in the ratio of 50:50:0.1 (v/v/v) at a flow rate of 0.3 mL/min. The sample injection volume was 10 μL. Acetonitrile was HPLC grade and other chemical reagents and solvents were analytical grade. A Thermo TSQ Quantum Discovery MAX triple-quadruple tandem mass spectrometer equipped with ESI source (San Jose, CA) and Surveyor LC pump were used for LC-MS analysis. Data acquisition and data processing were performed by using Xcalibur software and LCQuan 2.0 data analysis program (Thermo Finnigan), respectively. Optimized MS parameters were as below: 4800 V spray voltage, 40.0 psi sheath gas pressure, 1.0 psi auxiliary valve flow and 300 °C of capillary temperature. When running collision-induced dissociation (CID), the pressure was set to 1.5 mTorr.
The peptides (10 μg/mL) were prepared in PBS pH 7.2 containing 20 ng/ml proteinase K. The resulting mixture were incubated at 37 °C in a water bath and taken out at different time intervals (0, 5, 15, 30, 60, 120 minutes), followed by quenching the samples with ethyl alcohol and quantitating the peptides by LC-MS analysis as described above.

BCF020 (Group O) = details: read-out: IC50 (nM), infection by primary isolate BCF020 (Group O), primary HIV-1 isolate
[1] = tested on: T20-resistant HIV-1 variant V38E/N42S; type: cell-based
93IN101 (C) = details: read-out: IC50 (nM), infection by primary isolate 93IN101 (C); primary HIV-1 isolate, subtype C
[2] = tested on: T20-resistant HIV-1 variant V38A/N42T; type: cell-based
[3] = tested on: HIV-1IIIB (subtype B, X4); assay: Inhibition of HIV-1 IIIB infection by peptides in the presence of sera from HIV-1-infected patients; type: cell-based; details: for IC50: MT-2 cells, triplicate, mean ± SD
Description: Inhibition of peptides on HIV-1IIIB (subtype B, X4)infection in the presence of HIV-1-infected patients’ sera was determined as previously described. Briefly, each peptide was mixed with serially diluted serum from an HIV-1-infected patient at room temperature for 30 min. Next, the mixture of peptide/serum and HIV-1 (100 TCID50) were added to MT-2 cells (1 × 10^5/ml) in RPMI 1640 medium containing 10% FBS. After incubation at 37 °C overnight, the culture supernatants were replaced with fresh culture medium.

[4] = rat liver homogenate (100 mg wet tissue/2.5 ml PBS pH 7.2, 9,000 g supernatant), peptide 10 μg/ml, 37 °C, LC-MS; triplicate
Description: as §1
The supernatants were collected.

For `CC[C@H](C)[C@H](NC(=O)[C@H](CO)NC(=O)[C@H](CCC(=O)O)NC(=O)[C@H](CCC(=O)O)NC(=O)[C@H](CCC(N)=O)NC(=O)[C@H](CCCCN)NC(=O)[C@H](CCCCN)NC(=O)[C@@H](NC(=O)[C@H](CCC(N)=O)NC(=O)[C@H](CCC(=O)O)NC(=O)[C@H](CCC(=O)O)NC(=O)[C@@H](NC(=O)[C@H](CCCCN)NC(=O)[C@H](CCCCN)NC(=O)[C@@H](NC(=O)[C@H](CC(C)C)NC(=O)[C@H](CCC(=O)O)NC(=O)[C@H](CCC(=O)O)NC(=O)[C@H](CO)NC(=O)[C@H](CCCCN)NC(=O)[C@H](CCCCN)NC(=O)[C@@H](NC(=O)[C@H](CC(C)C)NC(=O)[C@H](CCC(=O)O)NC(=O)[C@H](CCC(=O)O)NC(=O)[C@@H](NC(=O)[C@H](CCCCN)NC(=O)[C@H](CCCCN)NC(=O)[C@H](CC(=O)O)NC(=O)[C@H](Cc1c[nH]c2ccccc12)NC(=O)[C@H](CCC(=O)O)NC(=O)[C@H](CCC(=O)O)NC(=O)[C@H](Cc1c[nH]c2ccccc12)NC(=O)[C@@H](NC(=O)[C@H](CCSC)NC(C)=O)[C@@H](C)O)[C@@H](C)CC)[C@@H](C)CC)[C@@H](C)CC)[C@@H](C)CC)[C@@H](C)CC)C(=O)N[C@@H](CCCCN)C(=O)N[C@@H](CCCCN)C(N)=O` [AP3] (Ac-MTWEEWDKKIEELIKKSEELIKKIEEQIKKQEESIKK-NH2), the remaining at 2 h, 10 μg/mL (proteinase K) was 100%, the “fold longer in vivo elimination half-life than T20” value (AP3 versus T20, SD rat, i.v. 1 mg/kg) was “about 2.8 fold” and the Cmax (intravenous 1 mg/kg, male SD rats, n = 2, plasma by sandwich ELISA, PK Solver) was 289.57 µg/mL. For the same compound, the IC50 (BCF020 (Group O)) was 21.9 ± 0.1 nM, the IC50 [1] was 42.4 ± 11.6 nM and the IC50 (93IN101 (C)) was 16.3 ± 1.5 nM. The IC50 [2] was 90 ± 21.5 nM, the “Fold change of IC50, HPS-1” value ([3]; HPS-1 relative to N) was 0.7 and the “Fold change of IC50, HPS-2” value ([3]; HPS-2 relative to N) was 0.2. The “Fold change of IC50, HPS-3” value ([3]; HPS-3 relative to N) was 0.2, the “Fold change of IC50, HPS-4” value ([3]; HPS-4 relative to N) was 0.1 and the “Fold change of IC50, HPS-5” value ([3]; HPS-5 relative to N) was 0.2. For the same compound, the IC50 ([3]; in presence of serum of HIV-1-infected patient HPS-1, read-out: IC50 (nM), HIV-1 IIIB infection, HPS-1) was 17.7 ± 4.3 nM, the IC50 ([3]; in presence of serum of HIV-1-infected patient HPS-2, read-out: IC50 (nM), HIV-1 IIIB infection, HPS-2) was 5.1 ± 0.7 nM and the IC50 ([3]; in presence of serum of HIV-1-infected patient HPS-3, read-out: IC50 (nM), HIV-1 IIIB infection, HPS-3) was 4.2 ± 0.4 nM. For the same compound, the IC50 ([3]; in presence of serum of HIV-1-infected patient HPS-4, read-out: IC50 (nM), HIV-1 IIIB infection, HPS-4) was 2 ± 0.6 nM, the IC50 ([3]; in presence of serum of HIV-1-infected patient HPS-5, read-out: IC50 (nM), HIV-1 IIIB infection, HPS-5) was 5.1 ± 0.8 nM and the “in vitro metabolic stability in liver homogenate” value [4] was “significantly enhanced in vitro metabolic stability over T20”.
